Test results published in patent US9980967B1, “Method for overcoming drug resistance of EGFR mutation and cancerous stemness of human non-small cell lung carcinoma” (NATIONAL CHIAO TUNG UNIVERSITY, priority 2017, dated 2018).

Assays:
H1975 xenograft tumors = test: Xenografted human NSCLC (H1975) tumors in nude mice; type: in vivo; details: 30 mg/kg once per four days
From the text: The results were obtained from twelve mice and the bar represents the mean±S.E.M.**p<0.01, indicating significant difference between control and SP101 treatment group mice. ###p<0.001 indicates significant differences between SP101 and Gefitinib-treated mice.
The tumor weight was means±*p<0.05 indicating significant differences between control and SP101 treatment group mice. #p<0.05 indicates significant differences between SP101 and Gefitinib-treated mice.
NSCLC tumors in nude mice were established. Seven-week-old nude mice were subcutaneously injected with 3×10^6 H1975 cells. Please refer to FIGS. 7 and 8. After 7 to 10 days inoculation, the nude mice were treated with vehicle or 30 mg/kg SP101 or 30 mg/kg Gefitinib once per four days and tumor sizes in the nude mice were measured every four days. The nude mice were sacrificed after treatment for 16 days; the tumors were harvested to measure tumor volume/weight and further analyze tumor tissues. […] Please refer to FIG. 9.

A549 cells = test: MTT cell viability assay in A549 cells; type: cell-based, human; details: 0~40 μM for 24 hours, compared with Gefitinib
Description: After treatment, the cells were re-cultured in fresh medium for 2 days. The cell viability was analyzed by MTT assays. The results were obtained from three independent experiments and the bar represents the mean±S.E.M. ***p<0.001 indicates significant difference between Gefitinib and SP101 treated samples.
A549 (ATCC number: CCL-185) was a non-small cell lung carcinoma cell line which expressed wild type EGFR and with K-Ras mutation (G12S). H1975 (ATCC number: CRL-5908) was a non-small cell lung carcinoma cell line which expressed EGFR L858R/T790M mutation. Oct4 and Nanog overexpression in A549-ON presented the properties of cancer stem-like cells, as well as epithelial-mesenchymal transdifferentiation. PLC26 was lung cancer cells that separated from pleural effusion of a clinical lung cancer patient (IRB number: 103-011-E). A549-ON cells were cultured in DMEM medium. A549 and H1975 cells were maintained in RPMI-1640 medium. […]
Please refer to FIG. 12. […] To compare the cell viability of SP101 and Gefitinib in K-Ras mutation-drug resistant A549 and A549-ON cell lines, the cells were treated with 0˜40 μM SP101 or Gefitinib for 24 hours, and analyzed by MTT assays. […] To determine the effect of SP101 and Gefitinib on the cell viability in cancer stem-like A549-ON cells, the cells were treated with 10˜40 μM SP101 or Gefitinib for 24 hours, and analyzed by MTT assays.

[1] = biological target: T1, phosphorylated EGFR (Tyr1068) (Homo sapiens, UniProt P00533); test: Western blot of phosphorylated EGFR and total EGFR in A549 cells; type: cell-based; details: 10~40 μM for 24 hours
T1 construct: endogenous in cells; host or cells: A549 (ATCC CCL-185)
T1 sequence (P00533 25-1210): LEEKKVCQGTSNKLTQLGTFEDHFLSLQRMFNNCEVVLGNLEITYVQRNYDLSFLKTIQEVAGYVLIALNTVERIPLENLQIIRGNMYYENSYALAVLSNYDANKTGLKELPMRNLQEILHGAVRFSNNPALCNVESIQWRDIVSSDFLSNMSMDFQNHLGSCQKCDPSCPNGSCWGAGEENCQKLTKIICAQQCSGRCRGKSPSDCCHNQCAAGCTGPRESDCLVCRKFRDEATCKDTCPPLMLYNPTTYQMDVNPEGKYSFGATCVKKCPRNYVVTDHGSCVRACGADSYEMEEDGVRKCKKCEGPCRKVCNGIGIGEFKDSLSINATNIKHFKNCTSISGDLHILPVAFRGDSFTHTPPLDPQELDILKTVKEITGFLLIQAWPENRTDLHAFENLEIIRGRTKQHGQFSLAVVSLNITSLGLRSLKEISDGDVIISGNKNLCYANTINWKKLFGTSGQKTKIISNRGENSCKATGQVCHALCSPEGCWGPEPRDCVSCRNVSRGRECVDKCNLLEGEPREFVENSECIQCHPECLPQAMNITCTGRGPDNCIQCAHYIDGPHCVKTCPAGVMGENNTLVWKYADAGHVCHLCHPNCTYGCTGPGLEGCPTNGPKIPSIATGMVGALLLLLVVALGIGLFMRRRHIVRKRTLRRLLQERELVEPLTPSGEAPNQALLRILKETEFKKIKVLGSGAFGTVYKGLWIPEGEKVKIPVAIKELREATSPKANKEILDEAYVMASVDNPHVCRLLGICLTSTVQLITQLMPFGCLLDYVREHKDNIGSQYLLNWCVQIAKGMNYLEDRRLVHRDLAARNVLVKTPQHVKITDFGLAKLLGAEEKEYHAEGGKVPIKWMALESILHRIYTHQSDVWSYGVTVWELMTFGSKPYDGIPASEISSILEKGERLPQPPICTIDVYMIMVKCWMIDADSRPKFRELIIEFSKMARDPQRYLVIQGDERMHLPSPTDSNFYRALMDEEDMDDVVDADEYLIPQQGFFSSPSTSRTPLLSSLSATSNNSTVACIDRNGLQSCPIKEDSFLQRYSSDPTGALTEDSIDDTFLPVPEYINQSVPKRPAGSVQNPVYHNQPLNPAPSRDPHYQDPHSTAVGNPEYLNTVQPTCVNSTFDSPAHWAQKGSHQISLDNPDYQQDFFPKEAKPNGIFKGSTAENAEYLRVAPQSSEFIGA
Description: At the end of treatment, the total protein extracts were prepared for Western blot analyses using specific antibodies, including rabbit anti-p-EGFR (Tyr1068), rabbit anti-EGFR and mouse anti-actin. Representative immunoblotting data were shown from one of three separate experiments with similar findings. Actin was an internal control protein.
Please refer to FIG. 14. The expressions of phosphorylated EGFR and total EGFR proteins after treatment with SP101 (10˜40 μM for 24 hours) in the K-Ras mutation A549 cells were analyzed by Western blot. […] Please refer to FIG. 15. We further examined the apoptosis levels of SP101 in A549 cells by Annexin V and PI staining. The cells were trypsinized and then incubated with propidium iodide (5 μl) and Annexin V-FITC (5 μl) at room temperature for 5 min before flow cytometry.

SMILES: CCCCCCCCCCCCOC(=O)CCC(=O)N1CCN(CCCOc2cc3c(Nc4ccc(F)c(Cl)c4)ncnc3cc2OC)CC1 [SP101, dodecyl 4-(4-(3-(4-(3-chloro-4-fluorophenylamino)-7-methoxyquinazolin-6-yloxy)propyl)piperazin-1-yl)-4-oxobutanoate]
- body weight of the nude mice (H1975 xenograft tumors; during the treatment period): did not alter
- tumor growth (H1975 xenograft tumors; H1975 xenograft in nude mice, 16 days): significantly inhibited
- tumor weight (H1975 xenograft tumors; H1975 xenograft in nude mice, after sacrifice at 16 days, compared with Gefitinib): more potent on the inhibition of tumor weight than Gefitinib
- reduction of cell viability (A549 cells): more potent on the reduction of cell viability than Gefitinib
- phosphorylated EGFR (Tyr1068) protein levels [1]: significantly reduced
- total EGFR protein levels [1]: did not alter
